# Test results reported in patent publication US20200093890A1, “COMPOSITIONS AND METHODS FOR TREATING ALZHEIMER'S DISEASE” (CASE WESTERN RESERVE UNIVERSITY, priority 2017, published 2020).
# Tested on: APP processing
# Assay: Immunoblot of APP processing (FIG. 12)
# Excerpt: FIG. 12 illustrates an immunoblot showing the effects ISP in combination with a γ-secretase inhibitor on APP processing compared to a γ-secretase inhibitor administered alone or a BACE1 inhibitor administered in combination with a γ-secretase inhibitor. […]
substance,measurement,setting,value
NH2GRKKRRQRRRCDMAEHTMERLKANDSLKLSQEYESI-NH2 [ISP],effect on APP processing (immunoblot),"ISP in combination with a γ-secretase inhibitor, compared to a γ-secretase inhibitor alone or a BACE1 inhibitor in combination with a γ-secretase inhibitor",substantially inhibited APP processing
same,suppression of APP amyloidogenic processing by BACE1,"blocking PTPσ with wedge domain peptide mimetic, compared with PTPσ depletion","suppress APP amyloidogenic processing by BACE1, to a similar degree as PTPσ depletion"
